Laboratory results from US7005443B1, “5-Hydroxy indazole derivatives for treating glaucoma” (priority 2000, dated 2006).
Read-outs that look alike come from different tables or passages of the source.

Legend:
[1] = molecular target: T1, 5HT2 receptor (Rattus norvegicus, UniProt P14842); assay: 5HT2 Functional Assay: Phosphoinositide (PI) turnover assay; type: cell-based; conditions: for Emax: A7R5, read-out: Efficacy (Emax, %)
T1 construct: A7r5 rat vascular smooth muscle cells; endogenous in cells; host or cells: A7r5 rat vascular smooth muscle cells
T1 sequence (P14842 whole entry): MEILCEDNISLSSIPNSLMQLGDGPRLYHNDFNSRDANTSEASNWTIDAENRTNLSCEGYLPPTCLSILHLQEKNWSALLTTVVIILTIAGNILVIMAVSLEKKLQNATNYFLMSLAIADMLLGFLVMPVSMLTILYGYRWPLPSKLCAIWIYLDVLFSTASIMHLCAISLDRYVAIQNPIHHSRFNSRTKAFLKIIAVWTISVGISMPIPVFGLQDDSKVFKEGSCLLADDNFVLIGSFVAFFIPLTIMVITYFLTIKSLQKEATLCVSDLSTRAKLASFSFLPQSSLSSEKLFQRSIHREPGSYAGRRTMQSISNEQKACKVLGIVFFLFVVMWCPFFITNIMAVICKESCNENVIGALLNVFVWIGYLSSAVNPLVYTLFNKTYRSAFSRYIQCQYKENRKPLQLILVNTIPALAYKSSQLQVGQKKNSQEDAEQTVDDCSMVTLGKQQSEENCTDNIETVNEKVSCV
Procedure: 5HT2 Functional Assay: Phosphoinositide (PI) turnover assay
The relative agonist activity of serotonergic compounds at the 5HT2 receptor can be determined in vitro using the ability of the compounds to stimulate the production of [^3H]inositol phosphates in [^3H]myo-inositol-labeled A7r5 rat vascular smooth muscle cells by their ability to activate the enzyme phospholipase C. These cells are grown in culture plates, maintained in a humidified atmosphere of 5% CO2 and 95% air and fed semi-weekly with Dulbecco's modified Eagle medium (DMEM) containing 4.5 g/l glucose and supplemented with 2 mM glutamine, 10 μg/ml gentamicin, and 10% fetal bovine serum. For the purpose of conducting the phosphoinositide (PI) turnover experiments, the A7r5 cells are cultured in 24-well plates as previously [J. Pharmacol. Expt. Ther., 286, 411 (1998)]. Confluent cells are exposed for 24–30 hrs to 1.5 μCi [^3H]-myo-inositol (18.3 Ci/mmol) in 0.5 ml of serum-free medium. Cells are then rinsed once with DMEM/F-12 containing 10 mM LiCl prior to incubation with the test agent (or solvent as the control) in 1.0 ml of the same medium for 1 hr at 37° C., after which the medium is aspirated and 1 ml of cold 0.1 M formic acid added to stop the reaction. The chromatographic separation of [^3H]-inositol phosphates ([^3H]-IPs) on an AG- 1-X8 column is performed as previously described [J. Pharmacol. Expt. Ther. 286, 411 (1998)] with sequential washes with H2O and 50 mM ammonium formate, followed by elution of the total [^3H]-IPs fraction with 1.2 M ammonium formate containing 0.1 M formic acid. The eluate (4 ml) is collected, mixed with 15 ml scintillation fluid, and the total [3H]-IPs determined by scintillation counting on a beta-counter. Concentration-response data are analyzed by the sigmoidal fit function of the Origin Scientific Graphics software (Microcal Software, Northampton, Mass.) to determine agonist potency (EC50 value) and efficacy (Emax). Serotonin (5HT) is used as a positive control (standard) agonist compound and the efficacy of test compounds is compared to that of 5HT (set at 100%). The concentration of the compound needed to stimulate the production of […] by 50% of the maximum response is termed the EC50 value.

SMILES | EC50 [1] | Emax [1] | melting point | EC50 ([1]; [3H]inositol phosphate production in A7r5 rat vascular smooth muscle cells, read-out: EC50)
CC(N)Cc1nn(C)c2ccc(O)cc12.O=C(O)/C=C/C(=O)O (stereo not drawn) [3-(2-Aminopropyl)-1-methyl-1H-indazol-5-ol fumarate] | 778 nM | 98% | 136 to 139 °C | –
CC(N)Cc1n[nH]c2ccc(O)cc12.Cl (stereo not drawn) [3-(2-Aminopropyl)-1H-indazol-5-ol hydrochloride] | – | 97% | 227 to 230 °C | 1210 nM
